What was measured:
Pseudomonas aeruginosa [1] = experiment: Chlorine dioxide and TTPC versus Pseudomonas aeruginosa, log reduction; type: cell-based; details: ClO2 of 10 ppm alone; 10^5 ml; 30 min exposure
Protocol: A test with chlorine dioxide (ClO2) and TTPC versus Pseudomonas aeruginosa was performed at 10^5 ml with ClO2 of 10 ppm. This alone gave a 1 log reduction in 30 min exposure. TTPC alone at 50 ppm gave a 2 log reduction. The combination of ClO2 and TTPC of 5 ppm and 10 ppm gave a 5 log reduction in 30 min.

[2] = 20-22 degrees C; high level disinfectant; cited from earlier work
Pseudomonas aeruginosa [3] = details: cited from earlier work
mycobacterial strains = details: cited from earlier work
[4] = tested on: acid-producing bacteria (APB); experiment: Effective kill time of acid-producing bacteria; type: cell-based
Protocol: When TTPC was added to the core Glutaraldehyde or OPA as a substitute for dual chain quaternary ammonium the effective kill time was twice as fast (2×) based upon log reduction. Similarly, the TTPC reduced the effective kill time of acid-producing bacteria (APB) by almost 50%. Although the kill speed of TTPC alone was 20% slower than the glut/quat formula of copending U.S. patent application Ser. No. 12/584,650, when TTPC is combined with glutaraldehyde as a substitute for dual chain quaternary ammonium the kill time increased to four times 4× faster, evidencing the synergism of the present combination.

aerobic organisms = experiment: Killing of aerobic organisms in oil frac water (5 log reduction); type: cell-based; details: based upon a 5 log reduction in oil frac water
From the text: (§1) As such there is actually a slight increase in planktonic microbes which are more susceptible to biocide/TTPC effects. Individual biocides affect the physiology of the cell quite differently. […] This is an example of enhanced quantum complementarity. The importance of the environmental parameter cannot be underestimated based upon the foregoing results. TTPC has a similar margin of exposure as the quats for oil field imputability with friction reducers for killing of aerobic organisms. […] The minimum inhibitory concentration (MIC) for the TTPC usage is 50-500 ppm. Therefore it is safe regarding corrosiveness, an important facet in well treatment. […] The faster cidal action is due basically to the chemistry difference between amine quats and phosphonium salts. The ammonium quats have longer alkyl chains. Instead of amine the difference is a phosphonium ion but also importantly is the alkyl chain length. It has been determined that there is an optimal length for anti-bacterial effectiveness. It was dependent upon chain length and attachment moieties. […] Usually the longer chain was better but not in these cases. […] TTPC did. There are great differences between Gram + and Gram − bacteria in their cell walls. […] The Gram − wall is complicated. It has in addition to the wall of G+ an outer membrane of lipopolysaccharides and phospholipids that protect the cell.

[5] = tested on: sulfur reducing bacteria (SRB); experiment: Efficacy in oil/gas fields on sulfur reducing bacteria; type: cell-based
From the text: as §1

biofilm = experiment: Biofilm removability; details: secondary oil and gas recovery
From the text: as §1

[O][Cl+][O-] [ClO2, chlorine dioxide]
log reduction (Pseudomonas aeruginosa [1]): 1 log

O=Cc1ccccc1C=O [OPA, ortho-phthalaldehyde]
disinfection time [2]: twelve | bactericidal activity against Pseudomonas aeruginosa (Pseudomonas aeruginosa [3]): good | bactericidal activity against mycobacterial strains (mycobacterial strains): limited activity

CCCCCCCCCCCCCC[P+](CCCC)(CCCC)CCCC.[Cl-] [TTPC, tributyl tetradecyl phosphonium chloride]
reduction of effective kill time of acid-producing bacteria (APB) [4]: ~50% | effectiveness relative to the original glut/quat formula (aerobic organisms): twice as effective | efficacy on sulfur reducing bacteria (SRB) [5]: almost equally effective | biofilm removability compared to quaternary ammonium (biofilm): superior biofilm removability
